From PubChem BioAssay AID256 (DTP/NCI, 2004)
Inconclusive results and toxic doses are left out.

Test system: CD2F1 mice, L1210 leukemia ip, survival T/C
Experiment: NCI In Vivo Anticancer Drug Screen. Data for tumor model L1210 Leukemia (intraperitoneal) in CD2F1 (CDF1) mice
Conditions: endpoint: mean survival time, higher = longer survival
Procedure, shortened: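 Mice carrying a transplanted tumor received test compound or vehicle alone. The value is the measurement in the treated group divided by that in the vehicle-treated control group.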

[1] = dose: 25.0 mg/kg/injection, schedule: Q01DX009 (ip), vehicle: saline
[2] = dose: 50.0 mg/kg/injection, schedule: Q01DX009 (ip), vehicle: saline
[3] = dose: 100.0 mg/kg/injection, schedule: Q01DX001 (ip), vehicle: saline
[4] = dose: 400.0 mg/kg/injection, schedule: Q01DX001 (ip), vehicle: saline
[5] = dose: 100.0 mg/kg/injection, schedule: Q01DX001 (ip), vehicle: saline with Tween-80
[6] = dose: 200.0 mg/kg/injection, schedule: Q01DX001 (ip), vehicle: saline with Tween-80
[7] = dose: 400.0 mg/kg/injection, schedule: Q01DX001 (ip), vehicle: saline with Tween-80
[8] = dose: 100.0 mg/kg/injection, schedule: Q04DX003 (ip), vehicle: saline with Tween-80
[9] = dose: 200.0 mg/kg/injection, schedule: Q04DX003 (ip), vehicle: saline with Tween-80
[10] = dose: 400.0 mg/kg/injection, schedule: Q04DX003 (ip), vehicle: saline with Tween-80
[11] = dose: 100.0 mg/kg/injection, schedule: Q01DX009 (ip), vehicle: saline with Tween-80
[12] = dose: 200.0 mg/kg/injection, schedule: Q01DX009 (ip), vehicle: saline with Tween-80
[13] = dose: 400.0 mg/kg/injection, schedule: Q01DX009 (ip), vehicle: saline with Tween-80

COc1cc(C[C@H]2c3cc(OC)c(OC)cc3CCN2C)c(Oc2cc3c(cc2OC)-c2c(OC)c(OC)cc4c2[C@H](C3)N(C)CC4)cc1OC
T/C (dose: 2.5 mg/kg/injection, schedule: Q03HX016 (ip), vehicle: saline): 92 % of control | T/C (dose: 2.5 mg/kg/injection, schedule: Q03HX024 (ip), vehicle: saline): 94 % of control | T/C (dose: 5.0 mg/kg/injection, schedule: Q03HX008 (ip), vehicle: saline): 95 % of control | T/C (dose: 5.0 mg/kg/injection, schedule: Q03HX016 (ip), vehicle: saline): 93 % of control | T/C (dose: 5.0 mg/kg/injection, schedule: Q03HX024 (ip), vehicle: saline): 91 % of control | T/C (dose: 6.25 mg/kg/injection, schedule: Q01DX009 (ip), vehicle: saline): 95 % of control | T/C (dose: 10.0 mg/kg/injection, schedule: Q03HX008 (ip), vehicle: saline): 93 % of control | T/C (dose: 10.0 mg/kg/injection, schedule: Q03HX016 (ip), vehicle: saline): 91 % of control | T/C (dose: 10.0 mg/kg/injection, schedule: Q03HX024 (ip), vehicle: saline): 92 % of control | T/C (dose: 12.5 mg/kg/injection, schedule: Q01DX009 (ip), vehicle: saline): 94 % of control | T/C (dose: 12.5 mg/kg/injection, schedule: Q01DX009 (oral), vehicle: saline): 98 % of control | T/C (dose: 20.0 mg/kg/injection, schedule: Q03HX008 (ip), vehicle: saline): 95 % of control | T/C (dose: 20.0 mg/kg/injection, schedule: Q03HX016 (ip), vehicle: saline): 95 % of control | T/C (dose: 20.0 mg/kg/injection, schedule: Q03HX024 (ip), vehicle: saline): 96 % of control | T/C [1]: 94 % of control | T/C (dose: 25.0 mg/kg/injection, schedule: Q01DX009 (oral), vehicle: saline): 101 % of control | T/C (dose: 25.0 mg/kg/injection, schedule: Q04DX003 (ip), vehicle: saline): 98 % of control | T/C (dose: 25.0 mg/kg/injection, schedule: Q08DX002 (ip), vehicle: saline): 92 % of control | T/C (dose: 40.0 mg/kg/injection, schedule: Q03HX008 (ip), vehicle: saline): 97 % of control | T/C (dose: 40.0 mg/kg/injection, schedule: Q03HX016 (ip), vehicle: saline): 93 % of control | T/C (dose: 40.0 mg/kg/injection, schedule: Q03HX024 (ip), vehicle: saline): 89 % of control | T/C (dose: 50.0 mg/kg/injection, schedule: Q01DX001 (ip), vehicle: saline): 87 % of control | T/C [2]: 94 % of control | T/C (dose: 50.0 mg/kg/injection, schedule: Q01DX009 (oral), vehicle: saline): 96 % of control | T/C (dose: 50.0 mg/kg/injection, schedule: Q04DX003 (ip), vehicle: saline): 98 % of control | T/C (dose: 50.0 mg/kg/injection, schedule: Q08DX002 (ip), vehicle: saline): 94 % of control | T/C (dose: 80.0 mg/kg/injection, schedule: Q03HX008 (ip), vehicle: saline): 98 % of control | T/C [3]: 87 % of control | T/C (dose: 100.0 mg/kg/injection, schedule: Q01DX001 (oral), vehicle: saline): 101 % of control | T/C (dose: 100.0 mg/kg/injection, schedule: Q01DX009 (ip), vehicle: saline): 94 % of control | T/C (dose: 100.0 mg/kg/injection, schedule: Q01DX009 (oral), vehicle: saline): 106 % of control | T/C (dose: 100.0 mg/kg/injection, schedule: Q04DX003 (ip), vehicle: saline): 95 % of control | T/C (dose: 100.0 mg/kg/injection, schedule: Q08DX002 (ip), vehicle: saline): 92 % of control | T/C (dose: 200.0 mg/kg/injection, schedule: Q01DX001 (oral), vehicle: saline): 101 % of control | T/C (dose: 200.0 mg/kg/injection, schedule: Q01DX009 (oral), vehicle: saline): 109 % of control | T/C (dose: 200.0 mg/kg/injection, schedule: Q04DX003 (ip), vehicle: saline): 105 % of control | T/C (dose: 200.0 mg/kg/injection, schedule: Q08DX002 (ip), vehicle: saline): 94 % of control | T/C [4]: 89 % of control | T/C (dose: 400.0 mg/kg/injection, schedule: Q01DX001 (oral), vehicle: saline): 103 % of control | T/C (dose: 400.0 mg/kg/injection, schedule: Q08DX002 (ip), vehicle: saline): 90 % of control | T/C (dose: 800.0 mg/kg/injection, schedule: Q01DX001 (ip), vehicle: saline): 90 % of control | T/C (dose: 800.0 mg/kg/injection, schedule: Q01DX001 (oral), vehicle: saline): 104 % of control | T/C (dose: 1600.0 mg/kg/injection, schedule: Q01DX001 (oral), vehicle: saline): 102 % of control

Nc1ccc2c(c1)C(=O)OC2(C(F)(F)F)C(F)(F)F
T/C [5]: 104 % of control | T/C [6]: 101 % of control | T/C [7]: 102 % of control

OC(C/C(=N\Nc1ccccc1)c1ccc(F)cc1)(C(F)(F)F)C(F)(F)F
T/C [8]: 100 % of control | T/C [9]: 98 % of control | T/C [10]: 96 % of control

NC(COC(c1ccccc1)(c1ccccc1)c1ccccc1)C(=O)O (centres undefined)
T/C [1]: 103 % of control | T/C [2]: 113 % of control | T/C (dose: 200.0 mg/kg/injection, schedule: Q01DX009 (ip), vehicle: saline): 150 % of control | T/C (dose: 300.0 mg/kg/injection, schedule: Q01DX009 (ip), vehicle: saline): 122 % of control | T/C (dose: 400.0 mg/kg/injection, schedule: Q01DX009 (ip), vehicle: saline): 111 % of control

CCOC(=O)c1ccc(NCC2=Nc3c(N)nc(N)nc3NC2)cc1
T/C (dose: 12.5 mg/kg/injection, schedule: Q01DX001 (ip), vehicle: carboxymethylcellulose (CMC)): 95 % of control | T/C (dose: 25.0 mg/kg/injection, schedule: Q01DX001 (ip), vehicle: carboxymethylcellulose (CMC)): 108 % of control | T/C (dose: 50.0 mg/kg/injection, schedule: Q01DX001 (ip), vehicle: carboxymethylcellulose (CMC)): 96 % of control

COC(=O)C(O)C(O)C(O)C(O)C(O)CO (centres undefined)
T/C [3]: 95 % of control | T/C (dose: 200.0 mg/kg/injection, schedule: Q01DX001 (ip), vehicle: saline): 98 % of control | T/C [4]: 96 % of control

CC(=O)NC(C=O)C(O)C1OC(c2ccccc2)OCC1O (centres undefined)
T/C [5]: 97 % of control | T/C [11]: 95 % of control | T/C [6]: 97 % of control | T/C [12]: 98 % of control | T/C [7]: 94 % of control | T/C [13]: 92 % of control

C=CCOC(=O)C1c2ccccc2Cc2ccccc21
T/C [11]: 92 % of control | T/C [12]: 106 % of control | T/C [13]: 92 % of control

CC(=O)OC1OC(CS[As](C)C)C(OC(C)=O)C(OC(C)=O)C1OC(C)=O (centres undefined)
T/C (dose: 50.0 mg/kg/injection, schedule: Q01DX009 (ip), vehicle: other): 96 % of control | T/C (dose: 100.0 mg/kg/injection, schedule: Q01DX009 (ip), vehicle: other): 108 % of control | T/C (dose: 200.0 mg/kg/injection, schedule: Q01DX009 (ip), vehicle: other): 93 % of control

CCCCCCCCCCCCCCCCCCNC(=O)Nc1ccc(C)cc1C
T/C (dose: 100.0 mg/kg/injection, schedule: Q01DX009 (ip), vehicle: saline + alcohol): 98 % of control | T/C (dose: 100.0 mg/kg/injection, schedule: Q04DX003 (ip), vehicle: saline + alcohol): 89 % of control | T/C (dose: 200.0 mg/kg/injection, schedule: Q01DX009 (ip), vehicle: saline + alcohol): 104 % of control | T/C (dose: 200.0 mg/kg/injection, schedule: Q04DX003 (ip), vehicle: saline + alcohol): 100 % of control | T/C (dose: 400.0 mg/kg/injection, schedule: Q01DX009 (ip), vehicle: saline + alcohol): 107 % of control | T/C (dose: 400.0 mg/kg/injection, schedule: Q04DX003 (ip), vehicle: saline + alcohol): 89 % of control

CC(=O)OC1CC2CC(O)(C(=O)CO)CC2C2CCC3=CC(=O)CC3C(C)(O)C12 (centres undefined)
T/C (dose: 75.0 mg/kg/injection, schedule: Q01DX001 (ip), vehicle: saline): 91 % of control | T/C (dose: 150.0 mg/kg/injection, schedule: Q01DX001 (ip), vehicle: saline): 96 % of control | T/C (dose: 300.0 mg/kg/injection, schedule: Q01DX001 (ip), vehicle: saline): 95 % of control

O=c1ssc2ccccc12
T/C [8]: 101 % of control | T/C [9]: 101 % of control | T/C [10]: 98 % of control

CC(O)C1OC(n2cnc3c(ncn3C3OC(C(C)O)C(O)C3O)c2=O)C(O)C1O (centres undefined)
T/C (dose: 10.63 mg/kg/injection, schedule: Q01DX005 (ip), vehicle: water): 102 % of control | T/C (dose: 21.25 mg/kg/injection, schedule: Q01DX005 (ip), vehicle: water): 98 % of control | T/C (dose: 42.5 mg/kg/injection, schedule: Q01DX005 (ip), vehicle: water): 102 % of control | T/C (dose: 85.0 mg/kg/injection, schedule: Q01DX005 (ip), vehicle: water): 101 % of control | T/C (dose: 170.0 mg/kg/injection, schedule: Q01DX005 (ip), vehicle: water): 108 % of control
